Test results reported in PMC6691788, “Design and synthesis of phthalazine-based compounds as potent anticancer agents with potential antiangiogenic activity via VEGFR-2 inhibition” (Journal of Enzyme Inhibition and Medicinal Chemistry, 2019).

Key:
Assay in all cases: NCI 60 cell panel SRB screen
[1] = test system: SNB-19; type: cell-based; conditions: Homo sapiens; SNB-19, single dose 10 μM; read-out: percent cell growth promotion
[2] = test system: NCI-H226; type: cell-based; conditions: Homo sapiens; NCI-H226, single dose 10 μM; read-out: percent cell growth promotion
[3] = test system: HOP-62; type: cell-based; conditions: Homo sapiens; HOP-62, single dose 10 μM; read-out: percent cell growth promotion
[4] = test system: SNB-75; type: cell-based; conditions: Homo sapiens; SNB-75, single dose 10 μM; read-out: percent cell growth promotion
[5] = test system: DU-145; type: cell-based; conditions: Homo sapiens; DU-145, single dose 10 μM; read-out: percent cell growth promotion
[6] = test system: SN12C; type: cell-based; conditions: Homo sapiens, single dose 10 μM, read-out: percent cell growth promotion
[7] = test system: HS 578T; type: cell-based; conditions: Homo sapiens, Hs-578T, read-out: percent cell growth promotion
[8] = test system: T-47D; type: cell-based; conditions: Homo sapiens, T47D, read-out: percent cell growth promotion
[9] = test system: LOX IMVI; type: cell-based; conditions: Homo sapiens, read-out: percent cell growth promotion
[10] = test system: SR; type: cell-based; conditions: Homo sapiens, single dose 10 μM, read-out: percent cell growth promotion
[11] = test system: MDA-MB 231/ATCC; type: cell-based; conditions: Homo sapiens, MDA-MB-231, read-out: percent cell growth promotion
[12] = test system: SK-OV-3; type: cell-based; conditions: Homo sapiens; SK-OV-3, single dose 10 μM; read-out: percent cell growth promotion
[13] = test system: HOP-92; type: cell-based; conditions: Homo sapiens; HOP-92, single dose 10 μM; read-out: percent cell growth promotion
[14] = test system: CAKI-1; type: cell-based, human; conditions: Homo sapiens; CAKI-1, single dose 10 μM; read-out: percent cell growth promotion
[15] = test system: SF-268; type: cell-based; conditions: Homo sapiens; SF-268, single dose 10 μM; read-out: percent cell growth promotion
[16] = test system: KM12; type: cell-based; conditions: Homo sapiens; KM12, single dose 10 μM; read-out: percent cell growth promotion
[17] = test system: UACC-62; type: cell-based; conditions: Homo sapiens, UACC-62, read-out: percent cell growth promotion
[18] = test system: MOLT-4; type: cell-based; conditions: Homo sapiens; MOLT-4, single dose 10 μM; read-out: percent cell growth promotion
[19] = test system: HCT-15; type: cell-based; conditions: Homo sapiens; HCT-15, single dose 10 μM; read-out: percent cell growth promotion
[20] = test system: HCC-2998; type: cell-based; conditions: Homo sapiens; HCC-2998, single dose 10 μM; read-out: percent cell growth promotion
[21] = test system: OVCAR-5; type: cell-based; conditions: Homo sapiens; OVCAR-5, single dose 10 μM; read-out: percent cell growth promotion
[22] = test system: HCT-116; type: cell-based; conditions: Homo sapiens; HCT-116, single dose 10 μM; read-out: percent cell growth promotion
[23] = test system: NCI-H322M; type: cell-based; conditions: Homo sapiens, single dose 10 μM, read-out: percent cell growth promotion
[24] = test system: TK-10; type: cell-based, human; conditions: Homo sapiens; TK-10, single dose 10 μM; read-out: percent cell growth promotion
[25] = test system: ACHN; type: cell-based; conditions: Homo sapiens, single dose 10 μM, read-out: percent cell growth promotion
[26] = test system: CCRF-CEM; type: cell-based, human; conditions: Homo sapiens, single dose 10 μM, read-out: percent cell growth promotion
[27] = test system: K-562; type: cell-based; conditions: Homo sapiens, K562; K-562, single dose 10 μM; read-out: percent cell growth promotion
[28] = test system: BT-549; type: cell-based; conditions: Homo sapiens, BT-549, read-out: percent cell growth promotion
[29] = test system: U251; type: cell-based; conditions: Homo sapiens, U-251; U251, single dose 10 μM; read-out: percent cell growth promotion
[30] = test system: RPMI-8226; type: cell-based; conditions: Homo sapiens; RPMI-8226, single dose 10 μM; read-out: percent cell growth promotion
[31] = test system: UACC-257; type: cell-based; conditions: Homo sapiens, UACC-257, read-out: percent cell growth promotion
[32] = test system: MCF7; type: cell-based; conditions: Homo sapiens, MCF7, read-out: percent cell growth promotion

Cc1nnc(N2CCN(c3ccccc3)CC2)c2ccccc12 [Compound 8g, 1-Methyl-4–(4-phenylpiperazin-1-yl)phthalazine]
activity at 10 µM [1]: 105% | activity at 10 µM [2]: 95.2% | activity at 10 µM [3]: 97.1% | activity at 10 µM [4]: 98.1% | activity at 10 µM [5]: 111% | activity at 10 µM [6]: 100% | activity at 10 µM [7]: 105% | activity at 10 µM [8]: 90.5% | activity at 10 µM [9]: 103% | activity at 10 µM [10]: 107% | activity at 10 µM [11]: 127% | activity at 10 µM [12]: 96.5% | activity at 10 µM [13]: 95.9% | activity at 10 µM [14]: 95.3% | activity at 10 µM [15]: 108% | activity at 10 µM [16]: 109% | activity at 10 µM [17]: 110% | activity at 10 µM [18]: 110% | activity at 10 µM [19]: 98.5% | activity at 10 µM [20]: 109% | activity at 10 µM [21]: 98.2% | activity at 10 µM [22]: 113% | activity at 10 µM [23]: 112% | activity at 10 µM [24]: 97.2% | activity at 10 µM [25]: 100% | activity at 10 µM [26]: 103% | activity at 10 µM [27]: 116% | activity at 10 µM [28]: 75.5% | activity at 10 µM [29]: 96.7% | activity at 10 µM [30]: 104% | activity at 10 µM [31]: 93% | activity at 10 µM [32]: 96.7%
